# Laboratory results taken from patent US10968172B2, “USP30 inhibitors” (Mitobridge, Inc., priority 2017, dated 2021).
# Target: USP30 (Homo sapiens (Human), UniProt Q70CQ3)
# Test: In vitro biochemical assay for USP30 enzyme (Ubiquitin-Rhodamine110 cleavage, fluorescence)
# Conditions: 20 nM USP30, 15 min pre-incubation, 100 nM Ub rhodamine substrate, 2 hrs at room temperature
# Protocol: In vitro biochemical assay for USP30 enzyme
# The in vitro assay for USP30 evaluates the ability of a test compound to inhibit the activity of the enzyme to cleave ubiquitin from a substrate. Ubiquitin-rhodamine 110 is a quenched, fluorescent substrate for USP30. Cleavage of the amide bond between the C-terminal glycine of ubiquitin and rhodamine results in an increase in rhodamine fluorescence at 535 nm (Exc. 485 nm).
# Incubation of the substrate in the presence or absence of USP30 was compared to confirm the deubiquitylating activity of USP30. The USP30 enzyme assay was performed by pre-incubating 20 nM of USP30 with varying concentration of a test compound in the assay buffer [PBS (pH 7.4), 1 mM DTT, 0.01% Tween 20, 0.01% BSA, DMSO final concentration is 1%] for 15 mins at room temperature, following which 100 nM of substrate Ub rhodamine was added and incubated at room temperature for 2 hrs and the plate was read for fluorescence intensity at Ex. 485 nm/535 nm in VICTOR X5 plate reader. The percent inhibition of activity of the enzyme is calculated by comparing counts in the presence and absence of compounds.
# Test compounds were screened at various concentrations (10-12 tested concentrations) and dose response curves were generated was generated using GraphPad Prism software Version 7 (San Diego, Calif., USA) with non-linear regression curve fit for sigmoidal dose response (variable slope).
# USP30, sequence (Q70CQ3 whole entry): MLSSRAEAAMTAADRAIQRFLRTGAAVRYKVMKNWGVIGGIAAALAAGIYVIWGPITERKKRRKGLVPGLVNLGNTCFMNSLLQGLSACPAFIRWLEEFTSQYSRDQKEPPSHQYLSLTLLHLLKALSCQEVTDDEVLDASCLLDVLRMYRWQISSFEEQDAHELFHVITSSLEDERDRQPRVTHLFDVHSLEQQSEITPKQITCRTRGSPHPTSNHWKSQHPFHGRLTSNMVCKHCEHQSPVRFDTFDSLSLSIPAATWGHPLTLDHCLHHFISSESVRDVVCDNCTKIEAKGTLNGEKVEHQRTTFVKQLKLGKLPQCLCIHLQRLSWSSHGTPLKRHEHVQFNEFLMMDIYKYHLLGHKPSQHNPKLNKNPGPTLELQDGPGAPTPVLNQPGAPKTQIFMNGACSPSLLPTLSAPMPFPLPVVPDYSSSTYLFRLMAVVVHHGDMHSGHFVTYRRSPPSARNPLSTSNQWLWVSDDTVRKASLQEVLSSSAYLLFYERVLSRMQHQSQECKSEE
row,SMILES,IC50 [nM]
1,"CC(C)(C)NS(=O)(=O)c1ccc(NC(=O)[C@H](CC2CCCCC2)NC(=O)c2ccc(F)cc2)cc1 [Compound 14c, (S)-N-(1-((4-(N-(tert-butyl)sulfamoyl)phenyl)amino)-3-cyclohexyl-1-oxopropan-2-yl)-4-fluorobenzamide]",23
2,"CC(C)(C)NS(=O)(=O)c1cccc2c(NC(=O)[C@H](Cc3ccccc3)NC(=O)C3CCCCCC3)cccc12 [Compound 4p, (S)-N-(1-((5-(N-(tert-butyl)sulfamoyl)naphthalen-1-yl)amino)-1-oxo-3-phenylpropan-2-yl)cycloheptanecarboxamide]",4300
3,"Cc1ccc(C(=O)N[C@@H](Cc2ccccc2)C(=O)Nc2cccc3c(S(=O)(=O)NC(C)(C)C)cccc23)cc1 [Compound 4i, (S)-N-(1-((5-(N-(tert-butyl)sulfamoyl)naphthalen-1-yl)amino)-1-oxo-3-phenylpropan-2-yl)-4-methylbenzamide]",2500
4,"CC(C)C[C@H](NC(=O)c1ccccc1)C(=O)Nc1cccc2c(S(=O)(=O)NC(C)(C)C)cccc12 [Compound 7a, (S)-N-(1-((5-(N-(tert-butyl)sulfamoyl)naphthalen-1-yl)amino)-4-methyl-1-oxopentan-2-yl)benzamide]",4300
5,"CC(C)(C)NS(=O)(=O)c1ccc(NC(=O)[C@H](CC2CCCCC2)NC(=O)c2ccc(C(F)(F)F)cc2)cc1 [Compound 14d, (S)-N-(1-((4-(N-(tert-butyl)sulfamoyl)phenyl)amino)-3-cyclohexyl-1-oxopropan-2-yl)-4-(trifluoromethyl)benzamide]",> 10000
6,"CC(C)(C)NS(=O)(=O)c1ccc(NC(=O)[C@H](CC2CCCCC2)NC(=O)c2ccc(F)c(F)c2)cc1 [Compound 14h, (S)-N-(1-((4-(N-(tert-butyl)sulfamoyl)phenyl)amino)-3-cyclohexyl-1-oxopropan-2-yl)-3,4-difluorobenzamide]",31
7,"CC(C)(C)NS(=O)(=O)c1cccc2c(NC(=O)[C@H](CC3CC3)NC(=O)c3ccccc3)cccc12 [Compound 7h, (S)-N-(1-((5-(N-(tert-butyl)sulfamoyl)naphthalen-1-yl)amino)-3-cyclopropyl-1-oxopropan-2-yl)benzamide]",2200
8,"CC(C)(C)NS(=O)(=O)c1cccc2c(NC(=O)[C@H](Cc3ccccc3)NC(=O)C3CCCCC3)cccc12 [Compound 4c, (S)-N-(1-((5-(N-(tert-butyl)sulfamoyl)naphthalen-1-yl)amino)-1-oxo-3-phenylpropan-2-yl)cyclohexanecarboxamide]",125
9,"CC(C)(C)NS(=O)(=O)c1ccc(NC(=O)[C@H](Cc2ccccc2)NC(=O)[C@@H]2CCCN2)cc1 [Compound 10i, (S)-N-((S)-1-((4-(N-(tert-butyl)sulfamoyl)phenyl)amino)-1-oxo-3-phenylpropan-2-yl)pyrrolidine-2-carboxamide]",> 10000
10,"COc1ccc(C[C@H](NC(=O)c2ccccc2)C(=O)Nc2cccc3c(S(=O)(=O)NC(C)(C)C)cccc23)cc1 [Compound 7f, (S)-N-(1-((5-(N-(tert-butyl)sulfamoyl)naphthalen-1-yl)amino)-3-(4-methoxyphenyl)-1-oxopropan-2-yl)benzamide]",89
11,"CC(C)(C)NS(=O)(=O)c1cccc2c(NC(=O)[C@H](Cc3ccccc3)NC(=O)c3ccccc3)cccc12 [Compound 4b, (S)—N-(1-((5-(N-(tert-butyl)sulfamoyl)naphthalen-1-yl)amino)-1-oxo-3-phenylpropan-2-yl)benzamide]",273
12,"CC(C)(C)NS(=O)(=O)c1cccc2c(NC(=O)[C@H](Cc3ccc(O)cc3)NC(=O)c3ccccc3)cccc12 [Compound 7b, (S)-N-(1-((5-(N-(tert-butyl)sulfamoyl)naphthalen-1-yl)amino)-3-(4-hydroxyphenyl)-1-oxopropan-2-yl)benzamide]",520
13,"CC(C)(C)NS(=O)(=O)c1cccc2c(NC(=O)[C@H](Cc3ccccc3)NC(=O)C3CCC(F)(F)CC3)cccc12 [Compound 4n, (S)—N-(1-((5-(N-(tert-butyl)sulfamoyl)naphthalen-1-yl)amino)-1-oxo-3-phenylpropan-2-yl)-4,4-difluorocyclohexane-1-carboxamide]",98
14,"CC(C)(C)NS(=O)(=O)c1cccc2c(NC(=O)[C@H](Cc3ccccc3)NC(=O)c3ccccn3)cccc12 [Compound 4x, (S)-N-(1-((5-(N-(tert-butyl)sulfamoyl)naphthalen-1-yl)amino)-1-oxo-3-phenylpropan-2-yl)picolinamide]",170
15,"CC(C)(C)NS(=O)(=O)c1ccc(NC(=O)[C@H](CC2CCCCC2)NC(=O)c2cccc(F)c2)cc1 [Compound 14g, (S)-N-(1-((4-(N-(tert-butyl)sulfamoyl)phenyl)amino)-3-cyclohexyl-1-oxopropan-2-yl)-3-fluorobenzamide]",57
16,"Cc1cccc(C(=O)N[C@@H](Cc2ccccc2)C(=O)Nc2cccc3c(S(=O)(=O)NC(C)(C)C)cccc23)n1 [Compound 4m, (S)-N-(1-((5-(N-(tert-butyl)sulfamoyl)naphthalen-1-yl)amino)-1-oxo-3-phenylpropan-2-yl)-6-methylpicolinamide]",> 10000

# Further lines, results first:
row,IC50 [nM],SMILES
1,> 10000,"COc1ccc(C[C@H](NC(=O)c2cncs2)C(=O)Nc2ccc(S(=O)(=O)NC(C)(C)C)cc2)cc1 [Compound 19w, (S)-N-(1-((4-(N-(tert-butyl)sulfamoyl)phenyl)amino)-3-(4-methoxyphenyl)-1-oxopropan-2-yl)thiazole-5-carboxamide]"
2,195,"CC(C)(C)NS(=O)(=O)c1cccc2c(NC(=O)[C@H](CC3CCCCC3)NC(=O)C3CCCCC3)cccc12 [Compound 19p, (S)-N-(1-((5-(N-(tert-butyl)sulfamoyl)naphthalen-1-yl)amino)-3-cyclohexyl-1-oxopropan-2-yl)cyclohexanecarboxamide]"
3,41,"CC(C)(C)NS(=O)(=O)c1ccc(NC(=O)[C@H](Cc2cccc(C#N)c2)NC(=O)C2CCCCC2)cc1 [Compound 19ad, (S)-N-(1-((4-(N-(tert-butyl)sulfamoyl)phenyl)amino)-3-(3-cyanophenyl)-1-oxopropan-2-yl)cyclohexanecarboxamide]"
4,19,"CC(C)(C)NS(=O)(=O)c1ccc(NC(=O)[C@H](Cc2cccs2)NC(=O)c2ccc(F)cc2)cc1 [Compound 19g, (S)-N-(1-((4-(N-(tert-butyl)sulfamoyl)phenyl)amino)-1-oxo-3-(thiophen-2-yl)propan-2-yl)-4-fluorobenzamide]"
5,16,"CC(C)(C)NS(=O)(=O)c1ccc(NC(=O)[C@H](Cc2cccnc2)NC(=O)c2ccc(F)cc2)cc1 [Compound 19n, (S)-N-(1-((4-(N-(tert-butyl)sulfamoyl)phenyl)amino)-1-oxo-3-(pyridin-3-yl)propan-2-yl)-4-fluorobenzamide]"
6,22,"COc1ccc(C[C@H](NC(=O)c2ccc(F)cc2)C(=O)Nc2ccc(S(=O)(=O)NC(C)(C)C)cc2)cc1 [Compound 19f, (S)-N-(1-((4-(N-(tert-butyl)sulfamoyl)phenyl)amino)-3-(4-methoxyphenyl)-1-oxopropan-2-yl)-4-fluorobenzamide]"
7,2400,"COc1ccc(C[C@H](NC(=O)c2ccncc2)C(=O)Nc2ccc(S(=O)(=O)NC(C)(C)C)cc2)cc1 [Compound 19ab, (S)-N-(1-((4-(N-(tert-butyl)sulfamoyl)phenyl)amino)-3-(4-methoxyphenyl)-1-oxopropan-2-yl)isonicotinamide]"
8,195,"COc1ccc(C[C@H](NC(=O)c2ccccn2)C(=O)Nc2ccc(S(=O)(=O)NC(C)(C)C)cc2)cc1 [Compound 19u, (S)-N-(1-((4-(N-(tert-butyl)sulfamoyl)phenyl)amino)-3-(4-methoxyphenyl)-1-oxopropan-2-yl)picolinamide]"
9,810,"CC(C)(C)NS(=O)(=O)c1ccc(NC(=O)[C@H](CC2CC2)NC(=O)C2CCCCC2)cc1 [Compound 19c, (S)-N-(1-((4-(N-(tert-butyl)sulfamoyl)phenyl)amino)-3-cyclopropyl-1-oxopropan-2-yl)cyclohexanecarboxamide]"
10,275,"CC(C)(C)NS(=O)(=O)c1ccc(NC(=O)[C@H](Cc2ccccc2)NC(=O)C2CCCCC2)cc1F [Compound 19m, (S)-N-(1-((4-(N-(tert-butyl)sulfamoyl)-3-fluorophenyl)amino)-1-oxo-3-phenylpropan-2-yl)cyclohexanecarboxamide]"
11,169,"CC(C)(C)NS(=O)(=O)c1ccc(NC(=O)[C@H](Cc2ccc(-c3ccccc3)cc2)NC(=O)c2ccc(F)cc2)cc1 [Compound 19l, (S)-N-(3-([1,1′-biphenyl]-4-yl)-1-((4-(N-(tert-butyl)sulfamoyl)phenyl)amino)-1-oxopropan-2-yl)-4-fluorobenzamide]"
12,20,"CC(C)(C)NS(=O)(=O)c1ccc(NC(=O)[C@H](Cc2ccncc2)NC(=O)c2ccc(F)cc2)cc1 [Compound 19y, (S)-N-(1-((4-(N-(tert-butyl)sulfamoyl)phenyl)amino)-1-oxo-3-(pyridin-4-yl)propan-2-yl)-4-fluorobenzamide]"
13,26,"CC(C)(C)NS(=O)(=O)c1ccc(NC(=O)[C@H](Cc2ccc(F)cc2)NC(=O)c2ccc(F)cc2)cc1 [Compound 19k, (S)-N-(1-((4-(N-(tert-butyl)sulfamoyl)phenyl)amino)-3-(4-fluorophenyl)-1-oxopropan-2-yl)-4-fluorobenzamide]"
